# Assay results as given in ChEMBL document CHEMBL1130436, “Synthesis and opioid activity of conformationally constrained dynorphin A analogues. 2. Conformational constraint in the "address" sequence” (J Med Chem, 1997).
# Legend:
# [1] = target: T1, Kappa-type opioid receptor (Cavia porcellus, UniProt P41144); assay: Binding affinity of compound was measured on Opioid receptor kappa 1 by competitive inhibition of radioligand [3H]diprenorphine using cloned receptors transiently expressed on COS-7 (monkey kidney) cells; assay type: cell-based
# Cavia porcellus = species on record: Cavia porcellus; assay: Opioid activity in guinea pig ileum; assay type: functional
# [2] = target: T2, Delta-type opioid receptor (Homo sapiens, UniProt P41143); assay: Binding affinity of compound was measured on Opioid receptor delta 1 by competitive inhibition of radioligand [3H]DPDPE using cloned receptors transiently expressed on COS-7 (monkey kidney) cells; assay type: cell-based
# Mu-type opioid receptor [3] = target: T3, Mu-type opioid receptor (Cavia porcellus, UniProt P97266); assay: Binding affinity of compound was measured on Opioid receptor mu 1 by competitive inhibition of radioligand [3H]DAMGO using cloned receptors transiently expressed on COS-7 (monkey kidney) cells; assay type: cell-based
# [4] = target: T1, Kappa-type opioid receptor; assay: Binding affinity to Opioid receptor kappa 1 by competitive inhibition of radioligand [3H]diprenorphine using cloned receptors transiently expressed on CHO cells; assay type: cell-based
# Mu-type opioid receptor [5] = target: T3, Mu-type opioid receptor; assay: Binding affinity to Opioid receptor mu 1 by competitive inhibition of radioligand [3H]DAMGO using cloned receptors transiently expressed on CHO cells; assay type: cell-based
# [6] = target: T2, Delta-type opioid receptor; assay: Binding affinity to Opioid receptor delta 1 by competitive inhibition of radioligand [3H]DPDPE using cloned receptors transiently expressed on CHO cells; assay type: cell-based, Cavia porcellus
structure (smiles),measurement,setting,value
CC[C@H](C)[C@H](NC(=O)[C@H](CCCNC(=N)N)NC(=O)[C@@H]1CCCNC(=O)C[C@@H](NC(=O)CNC(=O)[C@@H](N)Cc2ccc(O)cc2)C(=O)N[C@@H](Cc2ccccc2)C(=O)N[C@@H](CC(C)C)C(=O)N1)C(=O)N[C@@H](CCCNC(=N)N)C(=O)N1CCC[C@H]1C(=O)N[C@@H](CCCCN)C(=O)N[C@@H](CC(C)C)C(=O)N[C@@H](CCCCN)C(N)=O,Ki,[1],0.2 µM
same,IC50,Cavia porcellus,2.7 µM
same,Ki,[2],0.32 µM
same,Ki,Mu-type opioid receptor [3],0.32 µM
CC[C@H](C)[C@H](NC(=O)[C@H](CCCNC(=N)N)NC(=O)[C@H](CCCNC(=N)N)NC(=O)[C@H](CC(C)C)NC(=O)[C@H](Cc1ccccc1)NC(=O)[C@@H](CC(=O)O)NC(=O)CNC(=O)[C@@H](N)Cc1ccc(O)cc1)C(=O)N[C@@H](CCCNC(=N)N)C(=O)N1CCC[C@H]1C(=O)N[C@@H](CCCCN)C(=O)N[C@@H](CC(C)C)C(=O)N[C@@H](CCCCN)C(N)=O,IC50,Cavia porcellus,0.44 µM
same,Ki,[4],0.028 µM
same,Ki,Mu-type opioid receptor [5],0.18 µM
same,Ki,[6],0.43 µM
CC[C@H](C)[C@H](NC(=O)[C@H](CCCNC(=N)N)NC(=O)[C@@H]1CNC(=O)C[C@@H](NC(=O)CNC(=O)[C@@H](N)Cc2ccc(O)cc2)C(=O)N[C@@H](Cc2ccccc2)C(=O)N[C@@H](CC(C)C)C(=O)N1)C(=O)N[C@@H](CCCNC(=N)N)C(=O)N1CCC[C@H]1C(=O)N[C@@H](CCCCN)C(=O)N[C@@H](CC(C)C)C(=O)N[C@@H](CCCCN)C(N)=O,Ki,[1],0.48 µM
same,IC50,Cavia porcellus,1 µM
same,Ki,[2],2.8 µM
same,Ki,Mu-type opioid receptor [3],0.91 µM
CC[C@H](C)[C@H](NC(=O)[C@H](CCCNC(=N)N)NC(=O)[C@H](CN)NC(=O)[C@H](CC(C)C)NC(=O)[C@H](Cc1ccccc1)NC(=O)[C@@H](CC(=O)O)NC(=O)CNC(=O)[C@@H](N)Cc1ccc(O)cc1)C(=O)N[C@@H](CCCNC(=N)N)C(=O)N1CCC[C@H]1C(=O)N[C@@H](CCCCN)C(=O)N[C@@H](CC(C)C)C(=O)N[C@@H](CCCCN)C(N)=O,Ki,[1]; cos-7,0.3 µM
same,IC50,Cavia porcellus,2.8 µM
same,Ki,[2]; cos-7,1.3 µM
same,Ki,Mu-type opioid receptor [3]; cos-7,0.1 µM
CC[C@H](C)[C@@H]1NC(=O)[C@H](CCCNC(=N)N)NC(=O)[C@H](NC(=O)[C@H](CC(C)C)NC(=O)[C@H](Cc2ccccc2)NC(=O)CNC(=O)CNC(=O)[C@@H](N)Cc2ccc(O)cc2)CC(=O)NCC[C@@H](C(=O)N2CCC[C@H]2C(=O)N[C@@H](CCCCN)C(=O)N[C@@H](CC(C)C)C(=O)N[C@@H](CCCCN)C(N)=O)NC1=O,Ki,[4],0.0025 µM
same,Ki,Mu-type opioid receptor [5],0.0048 µM
same,Ki,[6],0.18 µM
CC[C@H](C)[C@@H]1NC(=O)[C@H](CCCN=C(N)N)NC(=O)[C@H](NC(=O)[C@H](CC(C)C)NC(=O)[C@H](Cc2ccccc2)NC(=O)CNC(=O)CNC(=O)[C@@H](N)Cc2ccc(O)cc2)CC(=O)N[C@H](C(=O)N2CCC[C@H]2C(=O)N[C@@H](CCCCN)C(=O)N[C@@H](CC(C)C)C(=O)N[C@@H](CCCCN)C(=O)O)CCNC1=O,IC50,Cavia porcellus,0.022 µM
CC[C@H](C)[C@@H]1NC(=O)[C@H](CCCN=C(N)N)NC(=O)[C@H](NC(=O)[C@H](CC(C)C)NC(=O)[C@H](Cc2ccccc2)NC(=O)CNC(=O)CNC(=O)[C@@H](N)Cc2ccc(O)cc2)CC(=O)N[C@H](C(=O)N2CCC[C@H]2C(=O)N[C@@H](CCCCN)C(=O)N[C@@H](CC(C)C)C(=O)N[C@@H](CCCCN)C(=O)O)CNC1=O,IC50,Cavia porcellus,0.046 µM
CC[C@H](C)[C@@H]1NC(=O)[C@H](CCCNC(=N)N)NC(=O)[C@H](NC(=O)[C@H](CC(C)C)NC(=O)[C@H](Cc2ccccc2)NC(=O)CNC(=O)CNC(=O)[C@@H](N)Cc2ccc(O)cc2)CC(=O)NC[C@@H](C(=O)N2CCC[C@H]2C(=O)N[C@@H](CCCCN)C(=O)N[C@@H](CC(C)C)C(=O)N[C@@H](CCCCN)C(N)=O)NC1=O,Ki,[4]; cho,0.0026 µM
same,Ki,Mu-type opioid receptor [5]; cho,0.0044 µM
same,Ki,[6]; cho,0.048 µM
CC(C)C[C@H](NC(=O)[C@H](CCCCN)NC(=O)[C@@H]1CCCN1C(=O)[C@H](CCCNC(=N)N)NC(=O)[C@@H]1CCNC(=O)C[C@@H](NC(=O)[C@H](Cc2ccccc2)NC(=O)CNC(=O)CNC(=O)[C@@H](N)Cc2ccc(O)cc2)C(=O)N[C@@H](CCCNC(=N)N)C(=O)N[C@@H](CCCNC(=N)N)C(=O)N1)C(=O)N[C@@H](CCCCN)C(N)=O,Ki,[4],0.014 µM
same,Ki,Mu-type opioid receptor [5],0.04 µM
same,Ki,[6],4.1 µM
CC(C)C[C@H](NC(=O)[C@H](CCCCN)NC(=O)[C@@H]1CCCN1C(=O)[C@H](CCCN=C(N)N)NC(=O)[C@@H]1CCNC(=O)[C@H](CCCN=C(N)N)NC(=O)[C@H](CCCN=C(N)N)NC(=O)[C@H](NC(=O)[C@H](Cc2ccccc2)NC(=O)CNC(=O)CNC(=O)[C@@H](N)Cc2ccc(O)cc2)CC(=O)N1)C(=O)N[C@@H](CCCCN)C(=O)O,IC50,Cavia porcellus,1.3 µM
CC[C@H](C)[C@H](NC(=O)[C@H](CCCNC(=N)N)NC(=O)[C@H](CCCNC(=N)N)NC(=O)[C@@H](CC(=O)O)NC(=O)[C@H](Cc1ccccc1)NC(=O)CNC(=O)CNC(=O)[C@@H](N)Cc1ccc(O)cc1)C(=O)N[C@@H](CCCNC(=N)N)C(=O)N1CCC[C@H]1C(=O)N[C@@H](CCCCN)C(=O)N[C@@H](CC(C)C)C(=O)N[C@@H](CCCCN)C(N)=O,Ki,[4],0.058 µM
same,Ki,Mu-type opioid receptor [5],0.0061 µM
same,Ki,[6],1.3 µM
CC[C@H](C)[C@H](NC(=O)[C@H](CCCNC(=N)N)NC(=O)[C@H](CCCNC(=N)N)NC(=O)[C@@H](CC(=O)O)NC(=O)[C@H](Cc1ccccc1)NC(=O)CNC(=O)CNC(=O)[C@@H](N)Cc1ccc(O)cc1)C(=O)N[C@@H](CCCNC(=N)N)C(=O)N1CCC[C@H]1C(=O)N[C@@H](CCCCN)C(=O)N[C@@H](CC(C)C)C(=O)N[C@@H](CCCCN)C(=O)O,IC50,Cavia porcellus,1.4 µM
CC(C)C[C@H](NC(=O)[C@H](CCCCN)NC(=O)[C@@H]1CCCN1C(=O)[C@H](CCCNC(=N)N)NC(=O)[C@H](CN)NC(=O)[C@H](CCCNC(=N)N)NC(=O)[C@H](CCCNC(=N)N)NC(=O)[C@@H](CC(=O)O)NC(=O)[C@H](Cc1ccccc1)NC(=O)CNC(=O)CNC(=O)[C@@H](N)Cc1ccc(O)cc1)C(=O)N[C@@H](CCCCN)C(N)=O,Ki,[4],0.02 µM
same,Ki,Mu-type opioid receptor [5],0.0083 µM
same,Ki,[6],1.6 µM
CC[C@H](C)[C@H](NC(=O)[C@H](CCCNC(=N)N)NC(=O)[C@@H](CC(=O)O)NC(=O)[C@H](CC(C)C)NC(=O)[C@H](Cc1ccccc1)NC(=O)CNC(=O)CNC(=O)[C@@H](N)Cc1ccc(O)cc1)C(=O)N[C@@H](CN)C(=O)N1CCC[C@H]1C(=O)N[C@@H](CCCCN)C(=O)N[C@@H](CC(C)C)C(=O)N[C@@H](CCCCN)C(N)=O,IC50,Cavia porcellus,0.074 µM
same,Ki,[4]; cho,0.012 µM
same,Ki,Mu-type opioid receptor [5]; cho,0.0015 µM
same,Ki,[6]; cho,0.0082 µM
CC[C@H](C)[C@H](NC(=O)[C@H](CCCNC(=N)N)NC(=O)[C@@H](CC(=O)O)NC(=O)[C@H](CC(C)C)NC(=O)[C@H](Cc1ccccc1)NC(=O)CNC(=O)CNC(=O)[C@@H](N)Cc1ccc(O)cc1)C(=O)N[C@@H](CCCNC(=N)N)C(=O)N1CCC[C@H]1C(=O)N[C@@H](CCCCN)C(=O)N[C@@H](CC(C)C)C(=O)N[C@@H](CCCCN)C(N)=O,IC50,Cavia porcellus,0.029 µM
same,Ki,[4],0.008 µM
same,Ki,Mu-type opioid receptor [5],0.0012 µM
same,Ki,[6],0.022 µM
CC(C)C[C@H](NC(=O)[C@H](CCCCN)NC(=O)[C@@H]1CCCN1C(=O)[C@H](CCCNC(=N)N)NC(=O)[C@@H]1CNC(=O)C[C@@H](NC(=O)[C@H](Cc2ccccc2)NC(=O)CNC(=O)CNC(=O)[C@@H](N)Cc2ccc(O)cc2)C(=O)N[C@@H](CCCNC(=N)N)C(=O)N[C@@H](CCCNC(=N)N)C(=O)N1)C(=O)N[C@@H](CCCCN)C(N)=O,Ki,[4],0.008 µM
same,Ki,Mu-type opioid receptor [5],0.075 µM
same,Ki,[6],3.3 µM
CC(C)C[C@H](NC(=O)[C@H](CCCCN)NC(=O)[C@@H]1CCCN1C(=O)[C@H](CCCN=C(N)N)NC(=O)[C@@H]1CNC(=O)[C@H](CCCN=C(N)N)NC(=O)[C@H](CCCN=C(N)N)NC(=O)[C@H](NC(=O)[C@H](Cc2ccccc2)NC(=O)CNC(=O)CNC(=O)[C@@H](N)Cc2ccc(O)cc2)CC(=O)N1)C(=O)N[C@@H](CCCCN)C(=O)O,IC50,Cavia porcellus,> 5 µM
CC[C@H](C)[C@@H]1NC(=O)[C@H](CCCNC(=N)N)NC(=O)[C@H](NC(=O)[C@H](CC(C)C)NC(=O)[C@H](Cc2ccccc2)NC(=O)CNC(=O)CNC(=O)[C@@H](N)Cc2ccc(O)cc2)CC(=O)NCCC[C@@H](C(=O)N2CCC[C@H]2C(=O)N[C@@H](CCCCN)C(=O)N[C@@H](CC(C)C)C(=O)N[C@@H](CCCCN)C(N)=O)NC1=O,IC50,Cavia porcellus,0.0068 µM
same,Ki,[4],0.0015 µM
same,Ki,Mu-type opioid receptor [5],0.0032 µM
same,Ki,[6],0.028 µM
CC(C)C[C@H](NC(=O)[C@H](CCCCN)NC(=O)[C@@H]1CCCN1C(=O)[C@H](CCCN=C(N)N)NC(=O)[C@@H]1CCCNC(=O)[C@H](CCCN=C(N)N)NC(=O)[C@H](CCCN=C(N)N)NC(=O)[C@H](NC(=O)[C@H](Cc2ccccc2)NC(=O)CNC(=O)CNC(=O)[C@@H](N)Cc2ccc(O)cc2)CC(=O)N1)C(=O)N[C@@H](CCCCN)C(=O)O,IC50,Cavia porcellus,0.53 µM
CC(C)C[C@H](NC(=O)[C@H](CCCCN)NC(=O)[C@@H]1CCCN1C(=O)[C@H](CCCNC(=N)N)NC(=O)[C@@H]1CCCNC(=O)C[C@@H](NC(=O)[C@H](Cc2ccccc2)NC(=O)CNC(=O)CNC(=O)[C@@H](N)Cc2ccc(O)cc2)C(=O)N[C@@H](CCCNC(=N)N)C(=O)N[C@@H](CCCNC(=N)N)C(=O)N1)C(=O)N[C@@H](CCCCN)C(N)=O,Ki,[4],0.012 µM
same,Ki,Mu-type opioid receptor [5],0.062 µM
same,Ki,[6],1.9 µM
CC[C@H](C)[C@H](NC(=O)[C@H](CCCNC(=N)N)NC(=O)[C@H](CCCNC(=N)N)NC(=O)[C@H](CC(C)C)NC(=O)[C@H](Cc1ccccc1)NC(=O)CNC(=O)CNC(=O)[C@@H](N)Cc1ccc(O)cc1)C(=O)N[C@@H](CCCNC(=N)N)C(=O)N1CCC[C@H]1C(=O)N[C@@H](CCCCN)C(=O)N[C@@H](CC(C)C)C(=O)N[C@@H](CCCCN)C(=O)O [ANALOG OF DYNORPHIN A],IC50,Cavia porcellus,0.00019 µM
same,Ki,[4],0.00031 µM
same,Ki,Mu-type opioid receptor [5],0.00092 µM
same,Ki,[6],0.0284 µM
